This is an account of results in patent US20220161456A1, “S[…] PRESERVATIVE COMPOSITION COMPRISING POLYMERIC BETAINE AND CARBAMATE” (Troy Corporation, priority 2019, published 2022).

This assay concerns Trichoderma pseudokoningii (ATCC #26801), Aureobasidium pullulans (ATCC #9348), and a mixture of Aspergillus niger (ATCC #6275) and Penicillium funiculosum …. The assay is described as follows: ASTM D4445-10 cumulative fungal growth of all three examined organisms and Synergy Index. Format: cell-based. Conditions: for Σ Fungal Growth: cumulative score of the three sets of fungi; for % of Water-Only Control: Σ fungal growth normalized to water-only control. As for the experimental part: (§1) Radiata pine lumber was machined to specimens with size of 7 mm by 20 mm in cross section and 70 mm long. Solutions prepared as described above were used to treat the machined Radiata pine specimens. The treatment was carried out in a 600 mL beaker. Two unused test pieces were placed on the bottom of the beaker, and the specimens, four in a layer, were placed on the previous layers until all the treatment replicates were included. The specimens were held down with a finger bearing down on a watch glass and submerged in treating solution for 15 seconds. After 15 seconds, the beaker was drained but with specimens still held down, and then was tightly covered with a piece of plastic sheet to prevent drying and was stored overnight. Similarly, untreated control specimens were treated with water.
One day after treatment, duplicate wood specimens from the same treatment group were tested according to ASTM D4445-10 methodology. The wood specimens were checked for inhibition against sapstain fungi and molds Trichoderma pseudokoningii (ATCC #26801), Aureobasidium pullulans (ATCC #9348), and a mixture of Aspergillus niger (ATCC #6275) and Penicillium funiculosum (ATCC #11797). This method is described below:
(1) Placed duplicate wood specimens on top of polyester mesh and laid on a stack of four (4) filter paper squares (approximately 2 inches by 2.5 inches) presoaked in 5 mL sterile DI water.
(2) Prepared fungal mixture from freshly grown slants of each test organism.
(3) Added 2 mL of DI water and 0.1% Tween 20 to the slant and inverted to mix.
(4) Poured the concentrate into a total volume of 16 mL.
(5) Enumerated the stock via hemocytometer and adjusted to […] with additional DI water.
(6) Inoculated wood specimens via applying 0.25 mL of one of the three separate fungal suspensions to the top of the wood and distributing evenly on the surface with an L-spreader.
(7) Placed inoculated wood specimens in a humidity chamber for one month at 95% or larger relative humidity and 28° C.
(8) Rated wood specimens with a rating from “0” (No Growth) to “5” (Complete Growth).
In order to show more directly the possible synergy in the invention, the results are presented by applying the Synergy Index (S.I.), which is analyzed using the following equation:
FGA=Cumulative fungal growth scores of all three examined organisms of compound […], acting alone
FGA′=Cumulative fungal growth scores of all three examined organisms of compound […], in the mixture
FGB=Cumulative fungal growth scores of all three examined organisms of compound […], acting alone
FGB′=Cumulative fungal growth scores of all three examined organisms of compound […], in the mixture
When SI is greater than 1, antagonism is indicated. […] When SI equals to 1, the action of biocides is additive.
as §1, with “treat” for “treat the”
One day after treatment, duplicate wood specimens from the same treatment group were tested according to ASTM D4445-10(2019) methodology. The wood specimens were checked for inhibition against sapstain fungi and molds Trichoderma pseudokoningii (ATCC #26801), Aureobasidium pullulans (ATCC #9348), and a mixture of Aspergillus niger (ATCC #6275) and Penicillium funiculosum (ATCC #11797). […]

The mark [1] stands for this setting: 2400 ppm treatment solution, Example 2.
[2] abbreviates: 2400 ppm treatment solution, Example 3.
The mark [3] stands for this setting: 4800 ppm treatment solution, Example 2.

Regarding `CCCCNC(=O)OCC#CI` [IPBC, 3-iodo-2-propynyl butyl carbamate], the “Σ Fungal Growth” value under setting [1] was 2.6, the “Σ Fungal Growth” value under setting [2] was 3.8 and the “Σ Fungal Growth” value under setting [3] was 2.8. Besides, the “% of Water-Only Control” value worked out at 18.9% under setting [1], 29.23% under setting [2] and 19.8% under setting [3].
With “didecyl bis(hydroxyethyl) ammonium borate [DPAB]”, the “Σ Fungal Growth” value runs as follows: under setting [1], 10.8; under setting [2], 7.6; under setting [3], 7.6. Further, the “% of Water-Only Control” value runs as follows: under setting [1], 77.5%; under setting [2], 58.46%; under setting [3], 55.0%.
